Here are results for one compound from ChEMBL document CHEMBL5120928, “A New Chemotype of Chemically Tractable Nonsteroidal Estrogens Based on a Thieno[2,3-d]pyrimidine Core” (ACS Med Chem Lett, 2022).

Experiment [1] concerns the target T1, Estrogen receptor (Homo sapiens, UniProt P03372).
T1 sequence (P03372 whole entry): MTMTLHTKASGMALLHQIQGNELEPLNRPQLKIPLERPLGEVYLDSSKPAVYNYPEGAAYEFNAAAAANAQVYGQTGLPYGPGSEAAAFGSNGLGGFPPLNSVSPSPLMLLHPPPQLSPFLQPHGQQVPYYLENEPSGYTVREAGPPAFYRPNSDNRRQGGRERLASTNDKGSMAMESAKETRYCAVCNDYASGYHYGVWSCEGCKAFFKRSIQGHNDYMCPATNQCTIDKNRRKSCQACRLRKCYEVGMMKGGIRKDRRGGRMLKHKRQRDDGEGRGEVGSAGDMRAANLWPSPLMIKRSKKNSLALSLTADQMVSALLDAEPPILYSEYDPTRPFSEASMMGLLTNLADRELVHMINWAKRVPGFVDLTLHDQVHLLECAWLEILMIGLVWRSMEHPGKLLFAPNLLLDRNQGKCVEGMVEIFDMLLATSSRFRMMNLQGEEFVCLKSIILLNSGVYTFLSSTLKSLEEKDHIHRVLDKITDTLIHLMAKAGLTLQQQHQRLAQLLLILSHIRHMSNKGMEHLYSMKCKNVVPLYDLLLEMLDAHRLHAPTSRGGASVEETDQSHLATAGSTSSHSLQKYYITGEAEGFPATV
Description: Agonist activity at RST7-ERalpha (unknown origin) co-expressed with (ERE)TK-luciferase reporter plasmid transfected in human HepG2 cells incubated for 24 hrs by Renilla luciferase based reporter assay

In experiment [2] the target is T1, Estrogen receptor. The source holds these as a separate data set.

Where only a bound is given, the exact number is not on record here.

`Oc1ccc(CNc2nc(Cl)nc3scc(-c4ccccc4)c23)cc1O`: the EC50 at Estrogen receptor [1] and on Estrogen receptor [2] was greater than 10 µM throughout.
